Measured values published in PubChem BioAssay (NCI).
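GI50: concentration for 50% inhibition of growth. TGI is the concentration that stops growth completely.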

Key:
Assay in all cases: inhibition of tumour cell growth, NCI panel, 384-well format
[1] = system: SK-MEL-28 melanoma
[2] = system: T-47D breast
[3] = system: SR leukemia
[4] = system: COLO 205 colon
[5] = system: IGROV1 ovarian
[6] = system: OVCAR-3 ovarian
[7] = system: NCI/ADR-RES ovarian
[8] = system: LOX IMVI melanoma
[9] = system: HT29 colon
[10] = system: NCI-H23 lung
[11] = system: TK-10 renal
[12] = system: SNB-19 CNS
[13] = system: A498 renal
[14] = system: SK-MEL-5 melanoma
[15] = system: MDA-MB-468 breast
[16] = system: HCT-116 colon
[17] = system: MCF7 breast
[18] = system: SF-268 CNS
[19] = system: SNB-75 CNS
[20] = system: OVCAR-4 ovarian
[21] = system: EKVX NSCLC
[22] = system: HOP-62 NSCLC
[23] = system: MALME-3M melanoma
[24] = system: HCC-2998 colon
[25] = system: SK-OV-3 ovarian
[26] = system: BT-549 breast
[27] = system: NCI-H460 NSCLC
[28] = system: UO-31 renal
[29] = system: RPMI-8226 leukemia
[30] = system: U251 glioblastoma
[31] = system: PC-3 prostate
[32] = system: OVCAR-8 ovarian
[33] = system: ACHN renal
[34] = system: UACC-257 melanoma
[35] = system: MDA-MB-435 melanoma
[36] = system: NCI-H226 lung
[37] = system: DU-145 prostate
[38] = system: CAKI-1 renal
[39] = system: 786-0 renal
[40] = system: SN12C renal
[41] = system: KM12 colon
[42] = system: HS 578T breast
[43] = system: SF-539 CNS
[44] = system: HL-60(TB) leukemia
[45] = system: M14 melanoma
[46] = system: SF-295 CNS
[47] = system: NCI-H522 lung
[48] = system: NCI-H322M lung
[49] = system: RXF 393 renal
[50] = system: MOLT-4 leukemia
[51] = system: OVCAR-5 ovarian
[52] = system: MDA-MB-231 breast
[53] = system: K-562 leukemia
[54] = system: SW-620 colon
[55] = system: A549 NSCLC
[56] = system: HCT-15 colon
[57] = system: CCRF-CEM leukemia
[58] = system: HOP-92 NSCLC

## CC1(O)CC(c2nc(-c3ccc4ccc(-c5ccccc5)nc4c3)c3c(N)nccn23)C1 (stereo unspecified)
[1]
  GI50: 13.8 µM
  TGI: 26.7 µM
[2]
  GI50: 4.67 µM
  TGI: 14.3 µM
[3]
  GI50: 10.2 µM
  TGI: 21.8 µM
[4]
  GI50: 0.209 µM
  TGI: 11.3 µM
[5]
  GI50: 10.7 µM
  TGI: 24.1 µM
[6]
  GI50: 10.5 µM
  TGI: 22.4 µM
[7]
  GI50: 5.47 µM
  TGI: 18.7 µM
[8]
  GI50: 11.1 µM
  TGI: 23.2 µM
[9]
  GI50: 0.306 µM
  TGI: 16 µM
[10]
  GI50: 2.17 µM
  TGI: 14.9 µM
[11]
  GI50: 6.58 µM
  TGI: 19.3 µM
[12]
  GI50: 13 µM
  TGI: 25.9 µM
[13]
  GI50: 6.67 µM
  TGI: 19 µM
[14]
  GI50: 2.43 µM
  TGI: 12 µM
[15]
  GI50: 1.9 µM
  TGI: 6.36 µM
[16]
  GI50: 7.55 µM
  TGI: 20.7 µM
[17]
  GI50: 0.182 µM
  TGI: 13.4 µM
[18]
  GI50: 10.8 µM
  TGI: 22.9 µM
[19]
  GI50: 10.3 µM
  TGI: 22 µM
[20]
  GI50: 10.3 µM
  TGI: 22.5 µM
[21]
  GI50: 2.74 µM
  TGI: 16.9 µM
[22]
  GI50: 7.05 µM
  TGI: 20.3 µM
[23]
  GI50: 2.76 µM
  TGI: 12.3 µM
[24]
  GI50: 8.12 µM
  TGI: 20.7 µM
[25]
  GI50: 8.99 µM
  TGI: 21 µM
[26]
  GI50: 5.8 µM
  TGI: 18.2 µM
[27]
  GI50: 2.79 µM
  TGI: 15.5 µM
[28]
  GI50: 6.8 µM
  TGI: 20.5 µM
[29]
  GI50: 1.32 µM
  TGI: 4.12 µM
[30]
  GI50: 13 µM
  TGI: 25.8 µM
[31]
  GI50: 10 µM
  TGI: 22.8 µM
[32]
  GI50: 10.2 µM
  TGI: 22 µM
[33]
  GI50: 5.3 µM
  TGI: 22.4 µM
[34]
  GI50: 10.7 µM
  TGI: 22.5 µM
[35]
  GI50: 7.98 µM
  TGI: 20.8 µM
[36]
  GI50: 2.86 µM
  TGI: 12.2 µM
[37]
  GI50: 5.74 µM
  TGI: 20.3 µM
[38]
  GI50: 5.36 µM
  TGI: 18.3 µM
[39]
  GI50: 12.5 µM
  TGI: 25.1 µM
[40]
  GI50: 12.8 µM
  TGI: 25.6 µM
[41]
  GI50: 3.97 µM
  TGI: 13.8 µM
[42]
  GI50: 9.96 µM
  TGI: 21.6 µM
[43]
  GI50: 13 µM
  TGI: 25.8 µM
[44]
  GI50: 0.0517 µM
  TGI: 1.61 µM
[45]
  GI50: 10.5 µM
  TGI: 22.4 µM
[46]
  GI50: 12.9 µM
  TGI: 25.6 µM
[47]
  GI50: 5.74 µM
  TGI: 19 µM
[48]
  GI50: 4.22 µM
  TGI: 17.4 µM
[49]
  GI50: 2.76 µM
  TGI: 9.01 µM
[50]
  GI50: 2.89 µM
  TGI: 10.4 µM
[51]
  GI50: 12.7 µM
  TGI: 25.9 µM
[52]
  GI50: 5.42 µM
  TGI: 18.9 µM
[53]
  GI50: 7.3 µM
  TGI: 20.5 µM
[54]
  GI50: 3.85 µM
  TGI: 17.9 µM
[55]
  GI50: 10.3 µM
  TGI: 23.3 µM
[56]
  GI50: 3.09 µM
  TGI: 14.6 µM
[57]
  GI50: 5.63 µM
  TGI: 17.9 µM
[58]
  GI50: 2.73 µM
  TGI: 15.3 µM
